Data set [1] is described as follows: Cytotoxicity of inhibitors, trypan blue exclusion. The conditions noted are these: at working concentrations (Nocodazole 2.5 µM, Latrunculin A 0.1 µM).
For the next data set, the system named is Vero cells. As to the kind of experiment: Inhibition assays of NP transport with cytoskeleton-depolymerizing drugs. The data set is classed as cell-based. The conditions noted are these: Nocodazole 2.5 µM, Latrunculin A 0.1 µM; 1.5 µM NPs, 37 °C.

A value given as a limit tells only on which side of the number the result lay.

As for `COC(=O)Nc1nc2ccc(C(=O)c3cccs3)cc2[nH]1` [Nocodazole], in data set [1], the “cytotoxicity (cell death) after drug incubation” value is listed as no more than 10%. Moreover, the “effect of drug on Au@DBP distribution, movement and spread” value in the data set with Vero cells is “reversibly stopped”.

For `C/C1=C/C(=O)O[C@@H]2C[C@@H](CC[C@H](C)/C=C\C=C\CC1)O[C@@](O)([C@@H]1CSC(=O)N1)C2` [Latrunculin A], the “cytotoxicity (cell death) after drug incubation” value in data set [1] is no more than 10%. The “effect of drug on Au@DBP distribution, movement and spread” value in the data set with Vero cells is recorded as “did not stop”.

For the origin of these results see paper PMC5877387, “Nanoparticles engineered to bind cellular motors for efficient delivery” (Journal of Nanobiotechnology, 2018).
